Values joined by “and” are separate entries in the source; they are usually repeats but may differ in a detail not shown here. Equal values may be shown once. Read-outs that look alike come from different tables or passages of the source.
Legend:
full-length human FXR [1] = molecular target: T1, full-length human FXR (Homo sapiens, UniProt Q96RI1); details: mean±S.E.M., n≥3, previously reported, cited from earlier work; for FXR efficacy (maximum FXR activation relative to 3 μM GW4064): 3 μM GW4064 = 100 % activation; for EC50 / EC50(FXR): full-length FXR reporter gene assay, BSEP promoter, HeLa
T1 construct: coding for the full‐length human nuclear receptors FXR and RXRα; expressed in transfected cells; host or cells: HeLa
T1 sequence (Q96RI1 1-486): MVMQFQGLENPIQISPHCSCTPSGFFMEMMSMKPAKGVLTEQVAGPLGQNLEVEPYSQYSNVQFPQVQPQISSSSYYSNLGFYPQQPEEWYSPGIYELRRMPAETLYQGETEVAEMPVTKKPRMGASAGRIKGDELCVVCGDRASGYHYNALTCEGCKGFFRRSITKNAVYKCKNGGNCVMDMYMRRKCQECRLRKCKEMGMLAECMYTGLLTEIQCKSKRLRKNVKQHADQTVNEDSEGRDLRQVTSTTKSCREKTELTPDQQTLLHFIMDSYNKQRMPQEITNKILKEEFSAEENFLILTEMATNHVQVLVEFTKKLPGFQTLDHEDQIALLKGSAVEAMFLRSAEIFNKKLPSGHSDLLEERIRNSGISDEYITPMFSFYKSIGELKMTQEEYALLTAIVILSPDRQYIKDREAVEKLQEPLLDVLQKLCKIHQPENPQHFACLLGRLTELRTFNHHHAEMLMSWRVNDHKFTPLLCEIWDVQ
T1 sequence (P19793 1-462 partner): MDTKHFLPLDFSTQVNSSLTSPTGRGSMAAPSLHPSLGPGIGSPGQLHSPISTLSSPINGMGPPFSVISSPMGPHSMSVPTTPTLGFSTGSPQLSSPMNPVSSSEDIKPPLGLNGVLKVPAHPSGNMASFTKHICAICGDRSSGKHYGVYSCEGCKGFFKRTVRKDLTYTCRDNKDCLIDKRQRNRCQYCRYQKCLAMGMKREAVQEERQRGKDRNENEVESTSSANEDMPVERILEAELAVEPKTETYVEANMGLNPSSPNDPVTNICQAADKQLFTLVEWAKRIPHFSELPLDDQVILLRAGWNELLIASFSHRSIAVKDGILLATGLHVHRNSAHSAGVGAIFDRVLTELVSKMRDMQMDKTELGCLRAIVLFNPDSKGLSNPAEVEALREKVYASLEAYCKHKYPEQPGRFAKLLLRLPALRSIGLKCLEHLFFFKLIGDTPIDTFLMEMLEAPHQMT

recombinant human LTA4H = molecular target: T2, recombinant human LTA4H (Homo sapiens, UniProt P09960); details: for LTA4H max. inhib.: LTA4H inhibition at the highest tested concentration (up to 100 μM), mean±S.E.M., n=3
T2 sequence (P09960 1-611): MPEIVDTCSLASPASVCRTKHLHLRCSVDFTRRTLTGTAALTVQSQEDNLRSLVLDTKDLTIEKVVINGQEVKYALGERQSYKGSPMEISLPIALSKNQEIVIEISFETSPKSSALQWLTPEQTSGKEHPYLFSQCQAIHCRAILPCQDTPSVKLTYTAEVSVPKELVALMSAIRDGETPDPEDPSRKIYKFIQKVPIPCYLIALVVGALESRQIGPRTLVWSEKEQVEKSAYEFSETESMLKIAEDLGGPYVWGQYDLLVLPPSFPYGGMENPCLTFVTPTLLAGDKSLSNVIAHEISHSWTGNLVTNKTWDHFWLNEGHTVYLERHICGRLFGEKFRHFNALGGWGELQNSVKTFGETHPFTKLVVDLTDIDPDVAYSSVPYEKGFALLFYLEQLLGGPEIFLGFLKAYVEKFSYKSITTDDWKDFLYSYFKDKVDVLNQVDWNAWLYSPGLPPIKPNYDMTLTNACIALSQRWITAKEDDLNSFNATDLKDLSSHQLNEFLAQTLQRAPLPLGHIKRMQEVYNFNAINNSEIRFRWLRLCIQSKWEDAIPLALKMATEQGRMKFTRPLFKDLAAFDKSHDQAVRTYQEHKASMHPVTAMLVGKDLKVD
Description: FXR modulation by 3–20 was characterized in a cellular (HeLa, transiently transfected) full‐length FXR reporter gene assay employing the human FXR response element from the promoter region of bile salt export protein (BSEP) to govern firefly luciferase expression as reporter gene.[26, 27] FXR and its natural heterodimer partner retinoid X receptor (RXR) were constitutively over‐expressed and a constitutively expressed renilla luciferase was present as internal control for transfection efficiency and cellular health.
LTA4H assay. […] The assay was performed in black polystyrol 96‐well plates in a final volume of 100 μL. Test compound solution in DMSO (1 μL) or DMSO alone as control were incubated with 89 μl protein mixture (containing LTA4H, buffer and Triton‐X‐100). After 30 min, 10 μl of substrate mixture (containing L‐arginin‐7‐amido‐4‐methylcumarine and DMSO in buffer) were added. […] A blank measurement containing no protein was performed and treated as 0 % conversion control. All samples were measured in triplicates and each experiment was conducted in three independent repeats.

full-length human FXR [2] = molecular target: T1, full-length human FXR; assay: Full-length FXR:RXR reporter gene assay (BSEP promoter, HeLa, transiently transfected); format: cell-based; details: mean±S.E.M., n≥3; for FXR efficacy (maximum FXR activation relative to 3 μM GW4064): 3 μM GW4064 = 100 % activation; for EC50: full-length FXR reporter gene assay, BSEP promoter, HeLa
Description: Full‐length FXR:RXR reporter gene assay. HeLa cells were grown in DMEM high glucose supplemented with 10 % FCS, sodium pyruvate (1 mM), penicillin (100 U/mL) and streptomycin (100 μg/mL) at 37 °C and 5 % CO2 and seeded in 96‐well plates 24 h before transfection with a density of 8000 cells per well. 3.5 h before transfection, medium was changed to DMEM high glucose, supplemented with sodium pyruvate (1 mM), penicillin (100 U/mL), streptomycin (100 μg/mL) and 0.5 % charcoal‐stripped FCS. Cells were then transiently transfected with using the calcium phosphate transfection method with pGL3basic‐BSEP[26, 27] (containing a shortened construct of the promotor of the bile salt export protein (BSEP) cloned into the SacI/NheI cleavage site in front of the luciferase gene), pcDNA3‐hFXR[26] and pSG5‐hRXR[38] coding for the full‐length human nuclear receptors FXR and RXRα, and pRL‐SV40 (Promega) for normalization of transfection efficiency and cell growth. 16 h after transfection, medium was changed to DMEM high glucose, supplemented with sodium pyruvate (1 mM), penicillin (100 U/mL), streptomycin (100 μg/mL) and 0.5 % charcoal‐stripped FCS. 24 h after transfection, medium was changed to DMEM without phenol red, supplemented with sodium pyruvate (1 mM), penicillin (100 U/mL), streptomycin (100 μg/mL), L‐glutamine (2 mM) and 0.5 % charcoal‐stripped FCS, now additionally containing 0.1 % DMSO and the respective test compound or 0.1 % DMSO alone as untreated control. Each sample was tested in triplicate wells and each experiment was repeated independently at least three times. Following 24 h incubation with the test compounds, cells were assayed for luciferase activity using Dual‐Glo Luciferase Assay System (Promega) according to the manufacturer's protocol. Luminescence was measured with a Tecan Spark M luminometer (Tecan). Normalization of transfection efficiency and cell growth was done by division of firefly luciferase data by Renilla luciferase data multiplied by 1000 resulting in relative light units (RLU). Fold activation was obtained by dividing the mean RLU of the tested compound at a respective concentration by the mean RLU of untreated control. EC50 and standard error of the mean values were calculated with the mean fold activation values of at least three independent experiments with SigmaPlot 10.0 (Systat Software GmbH, Erkrath, Germany) using a four‐parameter logistic regression.

Compound	FXR efficacy (maximum FXR activation relative to 3 μM GW4064) (full-length human FXR [1])	EC50 (full-length human FXR [1])	IC50 (recombinant human LTA4H)	LTA4H max. inhib. (recombinant human LTA4H)	FXR efficacy (maximum FXR activation relative to 3 μM GW4064) (full-length human FXR [2])	EC50 (full-length human FXR [2])	EC50(FXR) (full-length human FXR [1])
O=C(O)c1cccc(NC(=O)c2ccc(Oc3ccccc3)cc2)c1 [compound 11]	35±1%	1 ± 0.3 nM	550 ± 60 nM	98.2±0.1%	–	–	–
O=C(O)c1ccc(NC(=O)c2ccc(OCCCc3ccccc3)cc2)cc1 [compound 16]	–	–	200 ± 20 nM	98.8±0.1%	–	–	–
CS(=O)(=O)Nc1cccc(NC(=O)c2ccc(OCCCc3ccccc3)cc2)c1 [compound 18]	–	–	130 ± 10 nM	89.5±0.5%	35±2%	1600 ± 400 nM	–
O=C(O)c1cccc(NC(=O)c2ccc(OCCc3ccccc3)cc2)c1 [compound 9]	56±1%	150 ± 20 nM	610 ± 60 nM	96.0±0.2%	–	–	–
O=C(O)c1ccnc(NC(=O)c2ccc(Oc3ccccc3)cc2)c1 [compound 15]	56±1%	70 ± 20 nM	2100 ± 100 nM	89.6±0.6%	–	–	–
O=C(O)c1ccc(NC(=O)c2ccc(OCCCCc3ccccc3)cc2)cc1 [compound 7]	29±1%	14 ± 1 nM	370 ± 20 nM	97.8±0.1%	–	–	–
O=C(Nc1cccc(C(=O)O)n1)c1ccc(Oc2ccccc2)cc1 [compound 13]	–	–	280 ± 20 nM	90.8±0.3%	–	–	antagonist
COc1c(NC(=O)c2ccc(OCCCCc3ccccc3)cc2)cccc1C(=O)O [compound 6]	26±1%	190 ± 20 nM	5500 ± 500 nM	85±2%	–	–	–
O=C(Nc1ccnc(C(=O)O)c1)c1ccc(Oc2ccccc2)cc1 [compound 14]	–	–	950 ± 10 nM	97.9±0.1%	–	–	–
O=C(Nc1nc(C(=O)O)co1)c1ccc(OCCCc2ccccc2)cc1 [compound 20]	–	–	–	99.7±0.1%	30±1%	11000 ± 2000 nM	–
O=C(Nc1cccc2c(=O)cc(-c3nnn[nH]3)oc12)c1ccc(OCCCCc2ccccc2)cc1 [compound 4, pranlukast, reference compound]	–	–	1600 ± 200 nM	82.6±0.8%	–	–	–
O=C(O)Cc1cccc(NC(=O)c2ccc(OCCCc3ccccc3)cc2)c1 [compound 17]	–	–	1900 ± 100 nM	97.0±0.2%	–	> 30000 nM	–
O=C(O)c1cccc(NC(=O)c2ccc(OCCCCc3ccccc3)cc2)c1 [compound 3]	34% and 34±1%	–	540 ± 70 nM	97.2±0.4%	–	–	–
O=C(O)c1cccc(NC(=O)c2ccc(OCc3ccccc3)cc2)c1 [compound 10]	20±1%	–	1100 ± 100 nM	94.9±0.2%	–	–	–
O=C(O)c1cccc(NC(=O)c2ccc(Oc3cccc(-c4ccccc4)c3)cc2)c1 [compound 12]	–	–	5200 ± 600 nM	81.1±0.6%	14% and 14±1%	300 ± 100 nM	–
O=C(Nc1cccc2c(=O)cc(C(=O)O)oc12)c1ccc(OCCCCc2ccccc2)cc1 [compound 5]	–	–	15000 ± 2000 nM	80±5%	–	–	inactive (50 μM)

Reference: paper PMC8453936, “Development and in vitro Profiling of Dual FXR/LTA4H Modulators” (Chemmedchem, 2021)
